The record followed here is US20190308035A1, “A NON-INVASIVE METHOD FOR SELECTIVE NEURAL STIMULATION BY ULTRASOUND” (priority 2018, published 2019).

In assay [1] the target is T1, Piezo1 (Mus musculus, UniProt E2JF22). The assay can be described thus: Western blot of p-CaMKII and p-CREB in CLU199 cells. In kind it is cell-based. Also noted: Expression of Piezo1 in CLU199 cells was confirmed through RT-PCR; host or cells: mHippoE-18 (CLU199) embryonic mouse hippocampal cell line. As for the experimental part: To evaluate effects on cell signalling, the phosphorylated forms of the Calcium/calmodulin-dependent protein kinase type II (p-CaMKII), and the transcription factor CREB (p-CREB) (28), both crucial players in Ca2+ signalling were analysed.
T1 sequence (E2JF22 whole entry): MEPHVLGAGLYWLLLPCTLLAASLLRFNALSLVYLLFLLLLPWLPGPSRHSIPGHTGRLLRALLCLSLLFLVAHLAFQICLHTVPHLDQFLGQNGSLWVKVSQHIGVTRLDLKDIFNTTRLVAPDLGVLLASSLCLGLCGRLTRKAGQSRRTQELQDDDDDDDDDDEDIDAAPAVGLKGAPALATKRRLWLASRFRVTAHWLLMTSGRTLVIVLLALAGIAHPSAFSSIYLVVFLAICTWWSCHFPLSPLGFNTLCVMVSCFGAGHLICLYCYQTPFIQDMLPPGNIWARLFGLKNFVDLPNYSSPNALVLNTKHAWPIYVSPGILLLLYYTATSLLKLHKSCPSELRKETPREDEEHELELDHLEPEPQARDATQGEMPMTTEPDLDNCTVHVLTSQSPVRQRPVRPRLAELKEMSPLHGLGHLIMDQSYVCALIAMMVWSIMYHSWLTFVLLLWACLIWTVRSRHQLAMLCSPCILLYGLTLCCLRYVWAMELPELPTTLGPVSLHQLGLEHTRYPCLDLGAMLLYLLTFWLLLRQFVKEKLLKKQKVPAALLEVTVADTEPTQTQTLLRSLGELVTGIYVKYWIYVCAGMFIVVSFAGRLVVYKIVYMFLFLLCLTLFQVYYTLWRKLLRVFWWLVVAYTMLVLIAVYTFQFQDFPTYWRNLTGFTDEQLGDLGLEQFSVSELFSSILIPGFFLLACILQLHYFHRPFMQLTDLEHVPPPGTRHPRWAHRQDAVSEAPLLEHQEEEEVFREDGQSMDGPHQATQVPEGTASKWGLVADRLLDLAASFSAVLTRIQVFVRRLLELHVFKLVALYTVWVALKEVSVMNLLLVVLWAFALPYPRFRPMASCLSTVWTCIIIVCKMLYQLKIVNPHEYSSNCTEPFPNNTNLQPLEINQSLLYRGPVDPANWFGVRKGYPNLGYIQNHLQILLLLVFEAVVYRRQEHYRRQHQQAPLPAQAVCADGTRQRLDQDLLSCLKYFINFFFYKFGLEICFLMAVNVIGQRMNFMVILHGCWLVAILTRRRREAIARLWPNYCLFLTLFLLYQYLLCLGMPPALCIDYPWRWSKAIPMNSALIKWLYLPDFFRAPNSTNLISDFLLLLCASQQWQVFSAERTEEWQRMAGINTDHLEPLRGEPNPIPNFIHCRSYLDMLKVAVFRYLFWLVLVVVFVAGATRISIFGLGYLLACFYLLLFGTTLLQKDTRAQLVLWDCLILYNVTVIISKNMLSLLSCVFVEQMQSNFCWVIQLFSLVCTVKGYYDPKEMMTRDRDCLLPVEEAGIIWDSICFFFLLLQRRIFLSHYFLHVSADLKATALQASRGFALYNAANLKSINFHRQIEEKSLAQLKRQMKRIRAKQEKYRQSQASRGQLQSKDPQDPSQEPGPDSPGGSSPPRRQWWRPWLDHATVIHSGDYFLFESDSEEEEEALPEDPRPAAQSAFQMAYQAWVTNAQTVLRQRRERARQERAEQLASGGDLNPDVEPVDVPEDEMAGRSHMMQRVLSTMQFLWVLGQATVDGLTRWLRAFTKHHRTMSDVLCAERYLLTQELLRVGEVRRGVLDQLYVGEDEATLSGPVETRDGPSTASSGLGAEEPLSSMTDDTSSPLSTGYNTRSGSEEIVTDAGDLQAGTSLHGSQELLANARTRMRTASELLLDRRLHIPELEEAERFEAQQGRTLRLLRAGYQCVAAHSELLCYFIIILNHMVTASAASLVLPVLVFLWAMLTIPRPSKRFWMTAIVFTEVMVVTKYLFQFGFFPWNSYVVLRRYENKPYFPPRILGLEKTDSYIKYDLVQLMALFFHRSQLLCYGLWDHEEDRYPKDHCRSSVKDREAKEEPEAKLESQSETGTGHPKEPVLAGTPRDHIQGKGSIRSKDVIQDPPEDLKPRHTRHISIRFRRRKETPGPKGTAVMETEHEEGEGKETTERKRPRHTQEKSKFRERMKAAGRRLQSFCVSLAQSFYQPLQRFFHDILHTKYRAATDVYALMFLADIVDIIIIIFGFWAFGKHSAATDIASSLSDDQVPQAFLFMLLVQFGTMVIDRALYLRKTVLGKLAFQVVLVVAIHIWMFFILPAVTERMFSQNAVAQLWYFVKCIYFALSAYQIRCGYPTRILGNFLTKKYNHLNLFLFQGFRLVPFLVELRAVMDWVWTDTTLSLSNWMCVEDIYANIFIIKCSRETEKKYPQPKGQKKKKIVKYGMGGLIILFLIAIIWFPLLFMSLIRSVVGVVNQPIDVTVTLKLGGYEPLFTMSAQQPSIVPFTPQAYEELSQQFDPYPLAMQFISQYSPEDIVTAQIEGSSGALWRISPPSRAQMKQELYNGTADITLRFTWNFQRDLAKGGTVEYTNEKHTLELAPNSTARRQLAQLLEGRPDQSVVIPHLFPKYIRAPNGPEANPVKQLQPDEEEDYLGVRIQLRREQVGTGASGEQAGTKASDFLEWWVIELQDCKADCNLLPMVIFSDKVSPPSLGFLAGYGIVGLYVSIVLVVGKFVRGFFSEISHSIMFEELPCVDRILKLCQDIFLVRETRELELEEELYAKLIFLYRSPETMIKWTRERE
0.3 MPa ultrasound was then used to treat CLU199 cells with or without Yodal, or the Piezo1 blocker GsMTx-4 [7].
SMARTpool ON-TARGETplus Piezo1 siRNA (L-061455-00-0005) and ON-TARGETplus Non-Targeting Pool (D-001810-10) siRNA were obtained from Dharmacon. Transfection complexes were prepared by incubating siRNA with Lipofectamine RNAiMAX (Invitrogen) in Opti-MEM for 5 minutes at room temperature. 300 μl of complexes added per 35 mm dish or collagen-coated coverslips (5 μg/cm2). 1.5×10^6 cells were added per dish in fully-supplemented DMEM such that the final siRNA concentration was 125 nM. Cells were incubated for 48 hours post-transfection, and then used for further experiments.
(§1) CLU199 cells or primary cortical neurons at DIV 10 were treated with ultrasound at acoustic pressures of 0.1, 0.3 or 0.5 MPa for 20 minutes with 20 s interval inside a humified incubator, 37° C., 5% CO2. The ultrasonic stimulation system and treatment parameters are the same as those described in section 4. Yodal (Tocris Bioscience) was used as a Piezo1 agonist with a concentration of 1 μM, while GsMTx-4 (Abcam) was used as a Piezo1 blocker at a concentration of 10 μM. Yodal was added to culture media, followed by a 20-minute incubation or immediate ultrasound treatment. GsMTx-4 was added to culture media, allowed for 30 minutes incubation, and followed by a further 20-minute incubation or ultrasound treatment.
Cells were lysed with RIPA buffer (EMD Millipore), supplemented with 1× Halt™ Protease and Phosphatase Inhibitor Cocktail (Thermo Fisher Scientific) on ice, centrifuged to clear the lysate, and protein concentrations measured using the Bio-Rad protein assay. 30 or 50 μg total protein per well was loaded on 10% SDS-PAGE gels, electrophoresed, and transferred to methanol-activated PVDF membranes. Membranes were blocked with 3% BSA in Tris-buffered-saline+0.05% Tween-20 (TBST). Membranes were incubated in primary antibody diluted in 5% BSA in TBST overnight, washed with TBST and incubated in secondary antibody solutions, diluted in blocking buffer, for 1 hour at room temperature. […]
Protein levels were quantified through image densitometry using ImageJ. Protein levels were expressed as a fold change compared to the untreated control, an average ±SEM of at least three independent experiments, except in FIG. 2E. Statistical significance was calculated using a two-tailed unpaired student's t-test and P values below 0.05 were considered significant.
A general note: Immunoblotting shows a protein as a band on a membrane.

In assay [2] the target is T1, Piezo1. Description: Calcium imaging (Cal590) in 293T cells overexpressing Piezo1. Also noted: EGFP; expressed in transfected cells; host or cells: 293T cells (ATCC), pcDNA3.1 Piezo1-EGFP plasmid provided by Dr. Ardem Patapoutian. In kind it is cell-based. The conditions noted are these: Yodal; 293T cells overexpressing Piezo1 vs control cells.
Another assay has as its system CLU199 cells. The assay can be described thus: qPCR array of cAMP/calcium signalling genes in CLU199 cells. In kind it is cell-based, mouse. The conditions noted are these: array of 84 genes, Yodal 1 μM, vs untreated control. As for the experimental part:
Ultrasonic effects in CLU199 cells were explored using a qPCR array that probes 84 genes known to have Ca2+ responsive elements of various kinds.
A qRT-PCR array that explores genes that regulate calcium-related signalling (RT2 Pathway Finder) was used to evaluate how ultrasound treatment affects cellular signalling. Cells were also either pre-treated with GsMTx-4 (10 μM) before ultrasound or treated with Yodal (1 μM) by way of comparison. Results of the PCR were uploaded to Qiagen/SABiosciences online suite for data analysis, and clustergrams were generated using this software. Information about various subgroups of genes described here (FIG. 2J) were obtained from the product literature.
CLU199 cells seeded in 35 mm dishes were treated with ultrasound, Yodal or GsMTx-4 as appropriate. Total RNA was collected as described in section 7, and the concentration measured on NanoDrop™ One (Thermo Fisher Scientific). Samples with 260/280>1.8 and 260/230>2.0 were run on a 1% agarose gel containing bleach to check for RNA integrity (2). […] Ct values were calculated using the Quantstudio™ software, exported into a spreadsheet and uploaded to SABiosciences' online array data analysis software (accessible at: http://pcrdataanalysis.sabiosciences.com/per/arrayanalysis.php). […] Resulting clustergrams and a spreadsheet containing the analyzed results were obtained from this software. […]
In general terms: Quantitative PCR measures a nucleic acid by following its amplification.

For assay [3], the target named is T1, Piezo1. The assay can be described thus: Immunocytochemical staining of c-Fos, p-CaMKII and p-CREB in primary cortical neurons. Also noted: Expression of Piezo1 in CLU199 cells was confirmed through RT-PCR; host or cells: mHippoE-18 (CLU199) embryonic mouse hippocampal cell line. The conditions noted are these: GsMTx-4 10 μM followed by 0.3 MPa ultrasound. In kind it is cell-based. As for the experimental part: The expression of c-Fos, p-CaMKII and p-CREB was investigated by immunocytochemical staining in primary cortical neurons untreated, treated by ultrasound or treated with GsMTx-4 (10 μM) followed by ultrasound. Each stimulus contained 200 cycles, at 1 kHz RPF with 200 NTB of 500 kHz ultrasound at 0.3 MPa and the results are shown in FIG. 2I.
Primary cortical neurons from embryonic mice brains were harvested as described previously with slight modifications. Briefly, pregnant mice were sacrificed at E16.5-E17, and brains from the embryonic mice were collected. They were then dissected under a microscope to separate the cortex from the other brain mass. Cortical cells were dispersed and seeded into culture dishes or collagen-coated glass coverslips (4 μg/cm2). At DIV 10, the cells were used for further experiments.
as §1
CLU199 cells and primary neurons at DIV 10, including treated with (+) or without (−) ultrasound, were fixed using 4% paraformaldehyde+PBS and permeabilized using 0.1% Triton X-100+PBS. […] The number of c-Fos+ cells were determined by counting the number of DAPI and c-Fos signals co-located with DAPI from 10 FOVs photographed per condition. Results were expressed as a percentage of c-Fos versus DAPI signals, and were subjected to a one-way ANOVA followed by a post-hoc Tukey test. […]

[4] abbreviates: Yodal 1 μM alone, vs untreated control.
The mark [5] stands for this setting: GsMTx-4 10 μM incubation before 0.3 MPa ultrasound.

Entries after “also recorded” stand apart in the source; their conditions may differ. Bridge positions count the residues as written; N and C are the ends. Ends that are not written are not given here.

`Clc1cccc(Cl)c1CSc1nnc(-c2cnccn2)s1` [Yodal]: on Piezo1 [1] (setting [4]), the p-CREB level entry was “increased; also recorded: upregulate” and the p-CaMKII level result was “increased; also recorded: upregulate”. For the same molecule, on Piezo1 [2], the calcium influx entry was “Significant Ca2+ increase; also recorded: significantly higher calcium influx”. In the assay with CLU199 cells, the “number of genes co-downregulated by ultrasound and Yodal” value is reported as 23; the “number of genes co-upregulated by ultrasound and Yodal” value was 43.

With “GsMTx-4: Piezo1-specific blocker (Abcam), used at 10 μM (GCLEFWWKCNPNDDKCCRPKLKCSKLFKLCNFSF-NH2; disulfide 16-30, 2-17, 9-23; ends not checked)”, in the assay with Piezo1 [3], the “level of p-CREB” value was “affected”, the “level of p-CaMKII” value is listed as “affected” and the “ultrasound-induced c-Fos expression in the nuclei” value is “inhibited this effect”. In the assay with Piezo1 [1] (setting [5]), the “p-CREB level after ultrasound” value was “reduced to levels comparable to those in the untreated control; also recorded: inhibits this effect” and the “p-CaMKII level after ultrasound” value is reported as “reduced to levels comparable to those in the untreated control; also recorded: inhibits this effect”.
